# Measurements: patent US5597823A, “Tricyclic substituted hexahydrobenz [e]isoindole alpha-1 adrenergic antagonists” (priority 1995, dated 1997)
# Counter-ions that a name gives are not always drawn.
# Target: T1, α-1A adrenoceptor (dog prostate) (Canis lupus, UniProt A0A8I3NK63)
# T1 sequence (A0A8I3NK63 1-466): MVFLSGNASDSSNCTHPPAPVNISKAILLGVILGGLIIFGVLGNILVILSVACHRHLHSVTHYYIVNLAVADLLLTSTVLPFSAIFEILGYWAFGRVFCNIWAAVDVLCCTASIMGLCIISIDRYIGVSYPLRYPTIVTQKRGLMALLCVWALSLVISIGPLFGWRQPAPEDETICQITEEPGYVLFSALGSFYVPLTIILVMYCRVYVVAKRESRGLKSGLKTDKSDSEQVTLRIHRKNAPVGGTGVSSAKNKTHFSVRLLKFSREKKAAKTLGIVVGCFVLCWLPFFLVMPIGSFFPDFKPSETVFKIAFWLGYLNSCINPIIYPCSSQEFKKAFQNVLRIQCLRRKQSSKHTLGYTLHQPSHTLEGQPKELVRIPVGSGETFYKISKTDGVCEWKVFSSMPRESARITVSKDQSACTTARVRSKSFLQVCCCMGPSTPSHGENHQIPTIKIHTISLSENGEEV
# Test: Functional antagonism: phenylephrine (PE)-induced contraction of canine prostate strips
# Format: cell-based
# Conditions: Table 2b; vs phenylephrine; Schild plot
# Excerpt: Functional assays indicative of pharmacologically defined α-1 adrenoceptors were used to further characterize compounds. Inhibition of phenylephrine (PE)-induced contraction of canine prostate smooth muscle can be correlated with α-1A adrenoceptor activation. […] For each of these models, agonist dose response curves were repeated against increasing concentrations of test agent to derive a Schild plot [log ([…]) against log (molarity of test agent)] to determine the pA2.
# Canine prostate strips were used in vitro as previously described (Hieble, J. P., Boyce, A. J. and Caine, M., Fed. Proc., 45:2609-2614 (1986)), to determine antagonist potencies against phenylephrine-induced contractions.
row,Compound,pA2 Dog Prostate [α-1A]
1,"CCn1c(=O)n(CCN2C[C@@H]3CCc4c(OC)cccc4[C@@H]3C2)c(=O)c2sc3nccnc3c21 [Example 98, hydrochloride]",9.39
2,"COc1cccc2c1CC[C@H]1CN(CCn3cnc4c([nH]c5ccccc54)c3=O)C[C@@H]21 [Example 66, 3-2-((3aR,9bR)-cis-6-Methoxy-2,3,3a,4,5,9b-hexahydro-[1H]-benz[e]isoindol-1-yl)ethyl]-1H-pyrimido[5,4-b]indole-4(1H,3H)-one hydrochloride]",9.71
3,"COc1cccc2c1CC[C@H]1CN(CCn3c(=O)c4sc5ccccc5c4n(C)c3=O)C[C@@H]21 [Example 33, hydrochloride]",6.56
4,"COc1cccc2c1CC[C@H]1CN(CCn3c(=O)[nH]c4c([nH]c5ccncc54)c3=O)C[C@@H]21 [Example 97, hydrochloride]",9.66
5,"COc1cccc2c1CC[C@H]1CN(CCn3c(=O)[nH]c4c(sc5nc(C)cnc54)c3=O)C[C@@H]21 [Example 92, hydrochloride]",9.1
6,"COc1cccc2c1CC[C@H]1CN(CCn3c(=O)[nH]c4c(oc5ccccc54)c3=O)C[C@@H]21 (relative stereo) [Example 3, 3-[2-(cis-6-Methoxy-2,3,3a,4,5,9b-hexahydro-1H]-benz[e]isoindol-1-yl)ethyl]-benzofuro[3,2-d]pyrimidine-2,4(1H,3H)-dione hydrochloride]",8.4
7,"COc1cccc2c1[C@@H]1CN(CCCn3c(=O)[nH]c4c(sc5ccccc54)c3=O)C[C@@H]1CC2 (relative stereo) [Example 6, hydrochloride]",6.91
8,COc1cccc2c1CC[C@H]1CN(CCn3c(=O)[nH]c4c(sc5cncnc54)c3=O)C[C@@H]21 [Example 41],9.03
9,"COc1cccc2c1CC[C@H]1CN(CCn3c(=O)[nH]c4c(sc5nc(C)c(C)nc54)c3=O)C[C@@H]21 [Example 103, hydrochloride]",9.43
10,"COc1cccc2c1[C@@H]1CN(CCCCn3c(=O)[nH]c4c(sc5ccccc54)c3=O)C[C@@H]1CC2 (relative stereo) [Example 15, 3-[4-(cis-9-Methoxy-2,3,3a,4,5,9b-hexahydro-1H]-benz[e]isoindol-1-yl)butyl]-[1]benzothieno[3,2-d]pyrimidine-2,4(1H,3H)-dione hydrochloride]",7.34
11,"COc1cccc2c1CC[C@H]1CN(CCn3cnc4c(sc5nccnc54)c3=O)C[C@@H]21 [Example 71, 3-[2-(cis-(3.aR,9bR)-6-Methoxy-2,3 .,3a,4,5,9b-hexahydro-[1H]-benz[e]isoindol-1-yl)ethyl]-pyrazino[2',3':4,5]thieno[3,2-d]pyrimidine-4(1H,3H)-one hydrochloride]",9.21
12,"COc1cccc2c1[C@@H]1CN(CCCCn3c(=O)[nH]c4c(sc5cccnc54)c3=O)C[C@@H]1CC2 [Example 79, dihydrochloride]",8.77
13,"COc1cccc2c1CC[C@H]1CN(CCn3c(=O)c4sc5nccnc5c4n(C)c3=O)C[C@@H]21 [Example 95, hydrochloride]",9.07
14,"COc1cccc2c1CC[C@H]1CN(CCn3c(=O)[nH]c4c(oc5ncccc54)c3=O)C[C@@H]21 (relative stereo) [Example 27, 3-[2-(cis-6-Methoxy-2,3,3a,4,5,9b-hexahydro-[1H]-benz[e]isoindol-1-yl)ethyl]-pyrido[3',2':4,5]furo[3,2-d]pyrimidine-2,4(1H,3H)-dione hydrochloride]",8.72
15,"COc1cccc2c1CC[C@H]1CN(CCn3cnc4c(sc5ccccc54)c3=O)C[C@@H]21 (relative stereo) [Example 28, dihydrochloride]",7.75
16,"COc1cccc2c1[C@@H]1CN(CCCCn3c(=O)[nH]c4c(sc5nccnc54)c3=O)C[C@@H]1CC2 [Example 80, hydrochloride]",8.08
17,"COc1cccc2c1CC[C@H]1CN(CCN3CNc4c(sc5ncccc45)C3=O)C[C@@H]21 [Example 70, dihydrochloride]",8.57

# Continued, values first:
row,pA2 Dog Prostate [α-1A],Compound
1,7.24,"COc1cccc2c1CC[C@H]1CN(CCn3c(=O)[nH]c4c(sc5ccc(N(C)C)cc54)c3=O)C[C@@H]21 [Example 50, 3-[2-((3aR,9bR)-cis-6-Methoxy-2,3,3a,4,5,9b-hexahydro-[1H]-benz[e]isoindol-1-yl)ethyl]-[1]-8-N,N-dimethylamino-benzothieno[3,2-d]pyrimidine-2,4(1H,3H)-dione hydrochloride]"
2,7.43,"COc1cccc2c1CC[C@H]1CN(CCn3c(=O)[nH]c4c(sc5cc(Cl)ccc54)c3=O)C[C@@H]21 [Example 57, 3-[2-((3aR,9bR)-cis-6-Methoxy-2,3,3a,4,5,9b-hexahydro-[1H]-benz[e]isoindol-1-yl)ethyl]-[1]-7-chloro-benzothieno[3,2-d]pyrimidine-2,4(1H,3H)-dione hydrochloride]"
3,7.11,"COc1cccc2c1CC[C@H]1CN(CCn3c(=O)[nH]c4c(sc5c(Cl)cccc54)c3=O)C[C@@H]21 [Example 56, 3-[2-((3aR,9bR)-cis-6-Methoxy-2,3,3a,4,5,9b-hexahydro-[1H]-benz[e]isoindol-1-yl)ethyl]-[1]-6-chloro-benzothieno[3,2-d]pyrimidine-2,4(1H,3H)-dione hydrochloride]"
4,9.61,"COc1cccc2c1CC[C@H]1CN(CCn3c(=O)[nH]c4c(sc5ccc(C(N)=O)cc54)c3=O)C[C@@H]21 [Example 46, 3-[2-((3aR,9bR)-cis-6-Methoxy-2,3,3a.4,5,9b-hexahydro-[1H]-benz[e]isoindol-1-yl)ethyl]-[1]-8-carboxamido-benzothieno[3,2-d]pyrimidine-2,4(1H,3H)-dionehydrochloride]"
5,7.33,"COc1cccc2c1CC[C@H]1CN(CCCCn3c(=O)[nH]c4c(sc5ccccc54)c3=O)C[C@@H]21 (relative stereo) [Example 12, 3-[4-(cis-6-Methoxy-2,3,3a,4,5,9b-hexahydro-[1H]-benz[e]isoindol-1-yl)butyl]-[1]benzothieno[3,2-d]pyrimidine-2,4(1H,3H)-dione hydrochloride]"
6,8.38,"COc1cccc2c1CC[C@H]1CN(CCn3c(=O)[nH]c4c(sc5cccc(Cl)c54)c3=O)C[C@@H]21 [Example 72, 3-[2-((3aR,9bR)-cis-6-Methoxy-2,3,3a,4,5,9b-hexahydro-[1H]-benz[e]isoindol-1-yl)ethyl]-[1]-9-chloro-benzothieno[3,2-d]pyrimidine-2,4(1H,3H)-dione hydrochloride]"
7,7.87,"COc1cc2sc3c(=O)n(CCN4C[C@@H]5CCc6c(OC)cccc6[C@@H]5C4)c(=O)[nH]c3c2cc1OC [Example 68, 3-[2-((3aR,9bR)-cis-6-Methoxy-2,3,3a,4,5,9b-hexahydro-[1H]-benz[e]isoindol-1-yl)ethyl]-[1]-7,8-dimethoxy-benzothieno[3,2-d]pyrimidine-2,4(1H,3H)-dionehydrochloride]"
8,7.8,"COc1cccc2c1CC[C@@H]1CN(CCn3c(=O)[nH]c4c(sc5cccnc54)c3=O)C[C@H]21 [Example 78, dihydrochloride]"
9,9.09,"COc1cccc2c1CC[C@H]1CN(CCn3c(=O)[nH]c4c(sc5cc(C#N)ccc54)c3=O)C[C@@H]21 [Example 42, 3-[2-((3aR,9bR)-cis-6-Methoxy-2,3,3a,4,5,9b-hexahydro-[1H]-benz[e]isoindol-1-yl)ethyl]-[1]-7-cyano-benzothieno[3,2-d]pyrimidine-2,4(1H,3H)-dione hydrochloride]"
10,8.98,"COc1cccc2c1CC[C@H]1CN(CCn3c(=O)[nH]c4c(sc5ccc(Cl)cc54)c3=O)C[C@@H]21 [Example 67, hydrochloride]"
11,8.42,"COc1cccc2c1CC[C@H]1CN(CCn3c(=O)[nH]c4c(sc5cccc(OC)c54)c3=O)C[C@@H]21 [Example 73, 3-[2-((3aR,9bR)-cis-6-Methoxy-2,3,3a,4,5,9b-hexahydro-[1H]-benz[e]isoindol-1-yl)ethyl]-[1]-9-methoxy-benzothieno[3,2-d]pyrimidine-2,4(1H,3H)-dione hydrochloride]"
12,8.32,"COc1cccc2c1CC[C@H]1CN(CCn3c(=O)[nH]c4c(sc5ccc([N+](=O)[O-])cc54)c3=O)C[C@@H]21 [Example 48, 3-[2-((3aR,9bR)-cis-6-Methoxy-2,3,3a,4,5,9b-hexahydro-[1H]-benz[e]isoindol-1-yl)ethyl]-[1]-8-nitro-benzothieno[3,2-d]pyrimidine-2,4(1H,3H)-dione hydrochloride]"
13,9.48,"COc1cccc2c1CC[C@H]1CN(CCn3c(=O)[nH]c4c(sc5ccc(C(=O)N(C)C)cc54)c3=O)C[C@@H]21 [Example 45, hydrochloride]"
14,8.7,"COc1cccc2c1CC[C@H]1CN(CCn3c(=O)[nH]c4c(sc5cc([N+](=O)[O-])ccc54)c3=O)C[C@@H]21 [Example 47, 3-[2-((3aR,9bR)-cis-6-Methoxy-2,3,3a.4,5,9b-hexahydro-[1H]-benz[e]isoindol-1-yl)ethyl]-[1]-7-nitro-benzothieno[3,2-d]pyrimidine-2,4(1H,3H)-dione hydrochloride]"
